From patent US20120329787A1, “FUNGICIDAL PYRANONES AND OXAZINONES” (E.I. DU PONT DE NEMOURS AND COMPANY, priority 2011, published 2012)

Columns and labels:
Assay type in all cases: in vivo
[1] = system: Rhizoctonia solani; experiment: Test D: turf brown patch, spray on creeping bent grass seedlings the day before inoculation; conditions: 200 ppm test suspension
Text: General protocol for preparing test suspensions for Tests A-I: the test compounds were first dissolved in acetone in an amount equal to 3% of the final volume and then suspended at the desired concentration (in ppm) in acetone and purified water (50/50 mix by volume) containing 250 ppm of the surfactant Trem® 014 (polyhydric alcohol esters). The resulting test suspensions were then used in Tests A-I. Spraying a 200 ppm test suspension to the point of run-off on the test plants was the equivalent of a rate of 500 g/ha. […] (An asterisk “*” next to the rating value indicates a 40 ppm test suspension was used.) The test suspension was sprayed to the point of run-off on creeping bent grass (Agrostis sp.) seedlings. The following day, the seedlings were inoculated with a bran and mycelial slurry of Rhizoctonia solani (the causal agent of turf brown patch) and incubated in a saturated atmosphere at 27° C. for 48 h, and then moved to a growth chamber at 27° C. for 3 days, after which time disease ratings were made. […] A dash (-) indicates no test results. All results are for 200 ppm except where followed by an asterisk “*”, which indicates a 40 ppm.

[2] = system: Erysiphe graminis f. sp. tritici; experiment: Test I: wheat powdery mildew, spray on wheat seedlings the day before inoculation; conditions: 200 ppm test suspension
Outline: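 Wheat seedlings sprayed to run-off with compound at 200 ppm (40 ppm where marked; 200 ppm ≈ 500 g/ha) in acetone/water with 250 ppm surfactant. Inoculated next day with E. graminis spore dust; visual disease rating after 7 days at 20° C.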

[3] = system: Phytophthora infestans; conditions: 200 ppm test suspension; tomato seedlings
[4] = system: Puccinia recondita f. sp. tritici; experiment: Test H: wheat leaf rust, spray on wheat seedlings the day before inoculation; conditions: 200 ppm test suspension, sprayed before inoculation
Outline: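 Wheat seedlings sprayed to run-off with compound suspensions (acetone/water with surfactant; 200 ppm ≈ 500 g/ha, or 40 ppm), inoculated next day with rust spores. Plants kept 24 h in saturated atmosphere at 20 °C, then 6 days in a 20 °C growth chamber before visual disease rating.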

[5] = system: Septoria tritici; experiment: Test F: wheat leaf blotch, spray on wheat seedlings the day before inoculation; conditions: 200 ppm test suspension
Outline: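 Wheat seedlings sprayed to run-off with 200 ppm (≈500 g/ha) or 40 ppm suspension in acetone/water with 250 ppm Trem 014. Next day inoculated with Septoria tritici spores, held 48 h saturated at 24° C, then 19 days at 20° C before visual disease rating.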

[6] = system: Botrytis cinerea; experiment: Test A: tomato Botrytis, spray on tomato seedlings the day before inoculation; conditions: 200 ppm test suspension
Outline: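 Tomato seedlings sprayed to run-off with compound suspension (200 ppm, ≈500 g/ha; some at 40 ppm) in acetone/water with 250 ppm Trem 014, inoculated next day with Botrytis cinerea spores. Held 48 h saturated at 20 °C, then 3 days at 24 °C; disease rated visually.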

[7] = system: Alternaria solani; experiment: Test B: tomato early blight, spray on tomato seedlings the day before inoculation; conditions: 200 ppm test suspension
Outline: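 Tomato seedlings sprayed to run-off with 200 ppm suspension (40 ppm where asterisked), inoculated next day with Alternaria solani spores. Kept 48 h at 27 °C in saturated atmosphere, then 5 days at 20 °C before visual disease rating.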

[8] = system: Septoria nodorum; experiment: Test E: Septoria glume blotch, spray on wheat seedlings the day before inoculation; conditions: 200 ppm test suspension
Outline: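 Compounds in acetone/water (50/50) with 250 ppm Trem 014 surfactant, sprayed to run-off on wheat seedlings the day before Septoria nodorum inoculation. Tested at 200 ppm (equivalent to 500 g/ha) unless marked 40 ppm.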

**Q.** Which “Test D rating (100 = 100% disease control, 0 = no disease control)” value [1] does the source give for `Cc1noc(=O)c(-c2c(F)cc(F)cc2F)c1-c1ccc(Cl)cc1` [Compound 3] here?
**A.** 78%

**Q.** What about the “Test I rating (100 = 100% disease control, 0 = no disease control)” value [2] of the same compound?
**A.** 99%

**Q.** What about the “Test C rating (100 = 100% disease control, 0 = no disease control)” value [3] of the same compound?
**A.** 9%

**Q.** And the “Test H rating (100 = 100% disease control, 0 = no disease control)” value [4]?
**A.** 98%

**Q.** What about the “Test F rating (100 = 100% disease control, 0 = no disease control)” value [5] of the same compound?
**A.** 99%

**Q.** And the “Test A rating (100 = 100% disease control, 0 = no disease control)” value [6]?
**A.** 99%

**Q.** What about the “Test B rating (100 = 100% disease control, 0 = no disease control)” value [7] of the same compound?
**A.** 100%

**Q.** What about the “Test E rating (100 = 100% disease control, 0 = no disease control)” value [8] of the same compound?
**A.** 0%

**Q.** `Cc1noc(=O)c(-c2cccc(F)c2)c1-c1c(F)cccc1F` [Compound 4] was tested. Which “Test D rating (100 = 100% disease control, 0 = no disease control)” value [1] did it give?
**A.** 0%

**Q.** What about the “Test I rating (100 = 100% disease control, 0 = no disease control)” value [2] of the same compound?
**A.** 0%

**Q.** What about the “Test C rating (100 = 100% disease control, 0 = no disease control)” value [3] of the same compound?
**A.** 8%

**Q.** And the “Test H rating (100 = 100% disease control, 0 = no disease control)” value [4]?
**A.** 0%

**Q.** What about the “Test F rating (100 = 100% disease control, 0 = no disease control)” value [5] of the same compound?
**A.** 0%

**Q.** What about the “Test A rating (100 = 100% disease control, 0 = no disease control)” value [6] of the same compound?
**A.** 0%

**Q.** What about the “Test E rating (100 = 100% disease control, 0 = no disease control)” value [8] of the same compound?
**A.** 0%

**Q.** For `Cc1noc(=O)c(-c2c(F)cc(F)cc2F)c1-c1ccc(Cl)c(F)c1` [Compound 16], which “Test D rating (100 = 100% disease control, 0 = no disease control)” value [1] is on record?
**A.** 0%

**Q.** What about the “Test I rating (100 = 100% disease control, 0 = no disease control)” value [2] of the same compound?
**A.** 0%

**Q.** What about the “Test C rating (100 = 100% disease control, 0 = no disease control)” value [3] of the same compound?
**A.** 0%

**Q.** And the “Test H rating (100 = 100% disease control, 0 = no disease control)” value [4]?
**A.** 0%

**Q.** What about the “Test F rating (100 = 100% disease control, 0 = no disease control)” value [5] of the same compound?
**A.** 97%

**Q.** And the “Test A rating (100 = 100% disease control, 0 = no disease control)” value [6]?
**A.** 0%

**Q.** What about the “Test B rating (100 = 100% disease control, 0 = no disease control)” value [7] of the same compound?
**A.** 0%

**Q.** And the “Test E rating (100 = 100% disease control, 0 = no disease control)” value [8]?
**A.** 0%

**Q.** What does the source list for `COc1cc(OC)cc(-c2c(-c3ccccc3F)noc(=O)c2-c2ccc(F)cc2F)c1` [Compound 21]?
**A.** Test D rating (100 = 100% disease control, 0 = no disease control) [1]: 0%; Test I rating (100 = 100% disease control, 0 = no disease control) [2]: 0%; Test C rating (100 = 100% disease control, 0 = no disease control) [3]: 0%; Test H rating (100 = 100% disease control, 0 = no disease control) [4]: 0%; Test F rating (100 = 100% disease control, 0 = no disease control) [5]: 0%; Test A rating (100 = 100% disease control, 0 = no disease control) [6]: 0%; Test B rating (100 = 100% disease control, 0 = no disease control) [7]: 0%; Test E rating (100 = 100% disease control, 0 = no disease control) [8]: 0%

**Q.** Which “Test D rating (100 = 100% disease control, 0 = no disease control)” value [1] does the source give for `COc1cc(OC)cc(-c2c(-c3ccccc3F)noc(=O)c2-c2c(F)cccc2F)c1` [Compound 22] here?
**A.** 8%

**Q.** What about the “Test I rating (100 = 100% disease control, 0 = no disease control)” value [2] of the same compound?
**A.** 0%

**Q.** What about the “Test C rating (100 = 100% disease control, 0 = no disease control)” value [3] of the same compound?
**A.** 0%

**Q.** And the “Test H rating (100 = 100% disease control, 0 = no disease control)” value [4]?
**A.** 0%

**Q.** What about the “Test F rating (100 = 100% disease control, 0 = no disease control)” value [5] of the same compound?
**A.** 0%

**Q.** And the “Test A rating (100 = 100% disease control, 0 = no disease control)” value [6]?
**A.** 0%

**Q.** And the “Test B rating (100 = 100% disease control, 0 = no disease control)” value [7]?
**A.** 0%

**Q.** And the “Test E rating (100 = 100% disease control, 0 = no disease control)” value [8]?
**A.** 0%
